{
  "source": "patent US7217722B2",
  "about": "(Kirin Beer Kabushiki Kaisha, priority 2000, dated 2007)",
  "data": [
    {"target": "Rho kinase (fused protein of bovine Rho kinase catalyst region and glutathione S-transferase) (Bos taurus, UniProt Q28021)", "sequence (Q28021 92-354 limits assumed)": "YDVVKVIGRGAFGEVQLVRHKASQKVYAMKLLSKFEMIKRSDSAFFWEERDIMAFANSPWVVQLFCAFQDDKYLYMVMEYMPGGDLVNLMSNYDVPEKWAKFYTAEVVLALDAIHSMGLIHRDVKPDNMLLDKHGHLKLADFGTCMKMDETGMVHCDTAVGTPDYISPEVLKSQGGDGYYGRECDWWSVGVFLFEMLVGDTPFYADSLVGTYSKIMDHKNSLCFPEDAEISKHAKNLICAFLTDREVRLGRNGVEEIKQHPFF", "experiment": "Rho kinase inhibitory activity (phosphorylation of S6 231–239 substrate, γ32P-ATP)", "assay_type": "biochemical", "details": "concentration inhibiting substrate phosphorylation by 50%", "experimental": "This permits the substrate to be labeled with the radioisotope.\nThereafter, the substrate was adsorbed to a filter paper. ATP was washed away with a phosphoric acid solution, and the amount of the phosphorylated substrate was then measured with a liquid scintillation counter.", "units": {"IC50": "nM"}, "values": [
      {"smiles": "c1ccc(CNC2CCC(Nc3ccc4[nH]ncc4c3)CC2)cc1", "note": "(mixture of isomers) [Example 171, N1-Benzyl-N4-(1H-5-indazolyl)-1,4-cyclohexanediamine]", "IC50": 90},
      {"smiles": "O=C(Nc1ccncc1)Nc1c(Cl)cc(Cl)cc1Cl", "note": "[Example 1, N-(4-Pyridyl)-N′-(2,4,6-trichlorophenyl)urea]", "IC50": 200},
      {"smiles": "O=C(COc1c(Br)cc(F)cc1Br)Nc1ccncc1", "note": "[Example 2, N1-(4-Pyridyl)-2-(2,6-dibromo-4-fluorophenoxy)acetamide]", "IC50": 2210},
      {"smiles": "O=C(COc1c(Cl)cccc1Cl)Nc1ccncc1", "note": "[Example 3, N1-(4-Pyridyl)-2-(2,6-dichlorophenoxy)acetamide]", "IC50": 910},
      {"smiles": "O=C(/C=C/c1c(Cl)cccc1Cl)Nc1ccncc1", "note": "[Example 7, N1-(4-Pyridyl)-(E)-3-(2,6-dichlorophenyl)-2-propeneamide]", "IC50": 2540},
      {"smiles": "O=C(Nc1ccncc1)Nc1c(F)cccc1F", "note": "[Example 8, N-(2,6-Difluorophenyl)-N′-(4-pyridyl)urea]", "IC50": 2000},
      {"smiles": "O=C(Nc1ccncc1)Nc1c(Cl)cccc1Cl", "note": "[Example 9, N-(2,6-Dichlorophenyl)-N′-(4-pyridyl)urea]", "IC50": 850},
      {"smiles": "O=C(Nc1ccc2[nH]ncc2c1)Nc1c(Cl)cccc1Cl", "note": "[Example 13, N-(2,6-Dichlorophenyl)-N′-(1H-5-indazolyl)urea]", "IC50": 980},
      {"smiles": "O=C(COc1c(Cl)cccc1Cl)Nc1ccc2[nH]ncc2c1", "note": "[Example 14, N1-(1H-5-Indazolyl)-2-(2,6-dichlorophenoxy)acetamide]", "IC50": 1140},
      {"smiles": "O=C(COc1c(Cl)cc(F)cc1Cl)Nc1ccc2[nH]ncc2c1", "note": "[Example 15, N1-(1H-5-Indazolyl)-2-(2,6-dichloro-4-fluorophenoxy)acetamide]", "IC50": 460},
      {"smiles": "O=C(CSc1c(Cl)cccc1Cl)Nc1ccncc1", "note": "[Example 17, N1-(4-Pyridyl)-2-[(2,6-dichlorophenyl)-sulfanyl]acetamide]", "IC50": 9600},
      {"smiles": "O=C(Nc1ccncc1)Nc1c(F)cccc1Cl", "note": "[Example 18, N-(2-Chloro-6-fluorophenyl)-N′-(4-pyridyl)urea]", "IC50": 2870},
      {"smiles": "O=C(Nc1ccncc1)NC1CCCCC1", "note": "[Example 19, N-Cyclohexyl-N′-(4-pyridyl)urea]", "IC50": 7260},
      {"smiles": "Brc1cccc(CN2CCC(Nc3ccc4[nH]ncc4c3)CC2)c1", "note": "[Example 23]", "IC50": 124},
      {"smiles": "O=C(COc1c(Cl)cc(F)cc1Cl)Nc1ccncc1", "note": "[Example 24, N1-(4-Pyridyl)-2-(2,6-dichloro-4-fluorophenoxy)acetamide]", "IC50": 480},
      {"smiles": "CCOC(=O)c1cc(Cl)c(OCC(=O)Nc2ccncc2)c(Cl)c1", "note": "[Example 26, Ethyl 3,5-dichloro-4-[2-oxo-2-(4-pyridylamino)ethoxy]benzoate]", "IC50": 1030},
      {"smiles": "O=C(COc1c(F)cc(F)cc1F)Nc1ccncc1", "note": "[Example 28, N1-(4-Pyridyl)-2-(2,4,6-trifluorophenoxy)acetamide]", "IC50": 8110},
      {"smiles": "CCC(=O)c1cc(F)c(OCC(=O)Nc2ccncc2)c(F)c1", "note": "[Example 29, N1-(4-Pyridyl)-2-(2,6-difluoro-4-propionyl-phenoxy)acetamiden]", "IC50": 8590},
      {"smiles": "Cc1cc(Cl)c(OCC(=O)Nc2ccncc2)c(Cl)c1", "note": "[Example 30, N1-(4-Pyridyl)-2-(2,6-dichloro-4-methylphenoxy)acetamide]", "IC50": 1150},
      {"smiles": "O=C(CC1CCCCC1)Nc1ccncc1", "note": "[Example 31, N1-(4-Pyridyl)-2-cyclohexylacetamide]", "IC50": 5290},
      {"smiles": "O=C(COc1c(Cl)cc(F)cc1Cl)Nc1ncnc2[nH]ncc12", "note": "[Example 32, N1-(1H-Pyrazolo[3,4-d]pyrimidin-4-yl)-2-(2,6-dichloro-4-fluorophenoxy)acetamide]", "IC50": 1370},
      {"smiles": "O=C(Nc1ccc2[nH]ncc2c1)C1CCCCC1", "note": "[Example 33]", "IC50": 470},
      {"smiles": "O=C(CC1CCCCC1)Nc1ccc2[nH]ncc2c1", "note": "[Example 34, N1-(1H-5-Indazoyl)-1-cyclohexylacetamide]", "IC50": 870},
      {"smiles": "O=C(/C=C/c1ccccc1O)Nc1ccc2[nH]ncc2c1", "note": "[Example 35, N1-(1H-5-Indazolyl)-(E)-3-(2-hydroxyphenyl)-2-propeneamide]", "IC50": 1280},
      {"smiles": "O=C(/C=C/c1cccc(O)c1)Nc1ccc2[nH]ncc2c1", "note": "[Example 36, N1-(1H-5-Indazolyl)-(E)-3-(3-hydroxyphenyl)-2-propeneamide]", "IC50": 600},
      {"smiles": "O=C(/C=C/c1ccc(O)cc1)Nc1ccc2[nH]ncc2c1", "note": "[Example 37, N1-(1H-5-Indazolyl)-(E)-3-(4-hydroxyphenyl)-2-propeneamide]", "IC50": 305},
      {"smiles": "O=C(/C=C/c1ccc(O)c(O)c1)Nc1ccc2[nH]ncc2c1", "note": "[Example 38, N1-(1H-5-Indazolyl)-(E)-3-(3,4-dihydroxyphenyl)-2-propeneamide]", "IC50": 107},
      {"smiles": "O=C(Cc1ccc([N+](=O)[O-])cc1[N+](=O)[O-])Nc1ccc2[nH]ncc2c1", "note": "[Example 39, N1-(1H-5-Indazolyl)-2-(2,4-dinitrophenyl)acetamide]", "IC50": 122},
      {"smiles": "COc1cc(/C=C/C(=O)Nc2ccc3[nH]ncc3c2)ccc1O", "note": "[Example 40, N1-(1H-5-Indazolyl)-(E)-3-(4-hydroxy-3-methoxyphenyl)-2-propeneamide]", "IC50": 231},
      {"smiles": "COc1ccc(/C=C/C(=O)Nc2ccc3[nH]ncc3c2)cc1O", "note": "[Example 41, N1-(1H-5-Indazolyl)-(E)-3-(3-hydroxy-4-methoxyphenyl)-2-propeneamide]", "IC50": 224},
      {"smiles": "COc1ccc(/C=C/C(=O)Nc2ccc3[nH]ncc3c2)cc1OC", "note": "[Example 42, N1-(1H-5-Indazolyl)-(E)-3-(3,4-dimethoxyphenyl)-2-propeneamide]", "IC50": 605},
      {"smiles": "O=C(Cc1ccc(O)c(O)c1)Nc1ccc2[nH]ncc2c1", "note": "[Example 44, N1-(1H-5-Indazolyl)-2-(3,4-dihydroxyphenyl)acetamide]", "IC50": 394},
      {"smiles": "O=C(Cc1ccc2c(c1)OCO2)Nc1ccc2[nH]ncc2c1", "note": "[Example 45, N1-(1H-5-Indazolyl)-2-(1,3-benzodioxol-5-yl)acetamide]", "IC50": 153},
      {"smiles": "O=C(CCc1ccc(O)cc1)Nc1ccc2[nH]ncc2c1", "note": "[Example 47, N1-(1H-5-Indazolyl)-3-(4-hydroxyphenyl)-propaneamide]", "IC50": 735},
      {"smiles": "O=C(Cc1cccc([N+](=O)[O-])c1)Nc1ccc2[nH]ncc2c1", "note": "[Example 48, N1-(1H-5-Indazolyl)-2-(3-nitrophenyl)acetamide]", "IC50": 191},
      {"smiles": "O=C(Cc1ccc([N+](=O)[O-])cc1)Nc1ccc2[nH]ncc2c1", "note": "[Example 49, N1-(1H-5-Indazolyl)-2-(4-nitrophenyl)acetamide]", "IC50": 513},
      {"smiles": "O=C(CNc1ccc(O)cc1)Nc1ccc2[nH]ncc2c1", "note": "[Example 50, N1-(1H-5-Indazolyl)-2-(4-hydroxyanilino)acetamide]", "IC50": 326},
      {"smiles": "O=C(COc1ccc(O)cc1)Nc1ccc2[nH]ncc2c1", "note": "[Example 51, N1-(1H-5-Indazolyl)-2-(4-hydroxyphenoxy)acetamide]", "IC50": 459},
      {"smiles": "O=C(CCc1ccc2c(c1)OCO2)Nc1ccc2[nH]ncc2c1", "note": "[Example 52, N1-(1H-5-Indazolyl)-3-(1,3-benzodioxol-5-yl)propaneamide]", "IC50": 230},
      {"smiles": "O=C(NCc1ccc(Cl)cc1Cl)Nc1ccncc1", "note": "[Example 53, N-(2,4-Dichlorobenzyl)-N′-(4-pyridyl)urea]", "IC50": 4140},
      {"smiles": "O=C(NCc1c(Cl)ccc(Cl)c1Cl)Nc1ccncc1", "note": "[Example 55, N′-(4-Pyridyl)-N-(2,3,6-trichlorobenzyl)urea]", "IC50": 1040},
      {"smiles": "O=C(Nc1ccncc1)Nc1c(F)cc(F)cc1Br", "note": "[Example 57]", "IC50": 1110},
      {"smiles": "O=C(Nc1ccncc1)Nc1c(F)cccc1C(F)(F)F", "note": "[Example 58]", "IC50": 13500},
      {"smiles": "O=C(Nc1ccncc1)Nc1ccc(F)cc1C(F)(F)F", "note": "[Example 59, N-[4-Fluoro-2-(trifluoromethyl)phenyl]-N′-(4-pyridyl)urea]", "IC50": 7270},
      {"smiles": "O=C(Nc1ccncc1)Nc1ccc(Br)cc1F", "note": "[Example 60, N-(4-Bromo-2-fluorophenyl)-N′-(4-pyridyl)urea]", "IC50": 11000},
      {"smiles": "O=C(NCc1c(F)cccc1F)Nc1ccncc1", "note": "[Example 61, N-(2,6-Difluorobenzyl)-N′-(4-pyridyl)urea]", "IC50": 6950},
      {"smiles": "O=C(Nc1ccncc1)Nc1c(Cl)cc(C(F)(F)F)cc1Cl", "note": "[Example 63, N-[2,6-Dichloro-4-(trifluoromethyl)phenyl]-N′-(4-pyridyl)urea]", "IC50": 2500},
      {"smiles": "O=C(NCc1c(F)cccc1C(F)(F)F)Nc1ccncc1", "note": "[Example 64, N-[2-Fluoro-6-(trifluoromethyl)benzyl]-N′-(4-pyridyl)urea]", "IC50": 2190},
      {"smiles": "NC(=O)c1ccc(NC(=O)Nc2c(Cl)cccc2Cl)cc1", "note": "[Example 65, 4-{[(2,6-Dichloroanilino)carbonyl]amino}-benzamide]", "IC50": 9000},
      {"smiles": "O=C(Nc1ccncc1)Nc1c[nH]c2ccccc12", "note": "[Example 66, N-(1H-3-Indolyl)-N′-(4-pyridyl)urea]", "IC50": 6570},
      {"smiles": "O=C(Nc1ccc2c(c1)C(=O)NC2=O)Nc1c(Cl)cccc1Cl", "note": "[Example 67, N-(2,6-Dichlorophenyl)-N′-(1,3-dioxo-2,3-dihydro-1H-isoindolyl)urea]", "IC50": 1920},
      {"smiles": "O=C(NCc1c(Cl)cccc1Cl)Nc1ccc2c(c1)C(=O)NC2=O", "note": "[Example 68, N1-(2,6-Dichlorobenzyl)-N′-(1,3-dioxo-2,3-dihydro-1H-5-isoindolyl)urea]", "IC50": 110},
      {"smiles": "O=C(Nc1ccc2c(c1)C(=O)NC2=O)Nc1c[nH]c2ccccc12", "note": "[Example 69, N-(1,3-Dioxo-2,3-dihydro-1H-5-isoindolyl)-N′-(1H-3-indolyl)urea]", "IC50": 2270},
      {"smiles": "O=C(Nc1ccc2c(c1)C(=O)NC2=O)Nc1ccc2[nH]ccc2c1", "note": "[Example 70, N-(1,3-Dioxo-2,3-dihydro-1H-5-isoindolyl)-N′-(1H-5-indolyl)urea]", "IC50": 400},
      {"smiles": "O=C(Nc1ccccc1)Nc1ccc2c(c1)C(=O)NC2=O", "note": "[Example 72, N1-(1,3-Dioxo-2,3-dihydro-1H-5-isoindolyl)-N′-phenylurea]", "IC50": 900},
      {"smiles": "O=C(NCc1ccccc1)Nc1ccc2c(c1)C(=O)NC2=O", "note": "[Example 73, N-Benzyl-N′-(1,3-dioxo-2,3-dihydro-1H-5-isoindolyl)urea]", "IC50": 410},
      {"smiles": "CCCNC(=O)Nc1ccc2c(c1)C(=O)NC2=O", "note": "[Example 74, N-(1,3-Dioxo-2,3-dihydro-1H-5-isoindolyl)-N′-propylurea]", "IC50": 8300}
    ]}
  ]
}
